Key:
[1] = test system: differentiated human NT2N neurons; assay: MTT assay, Aβ1-42-induced toxicity on differentiated NT2N neurons; format: cell-based; settings: for protection against Aβ-induced toxicity: 25 μM Aβ1-42, 72 hours
NT2 cells [2] = assay: Expression of neurofilament proteins NF70, NF145, NF200 by NT2 cells (immunoblot); format: cell-based, human; settings: 6 days
Experimental: Cells were fixed with newly prepared 3.7% formaldehyde for 15 minutes and blocked by blocking reagent (Zymed Laboratories, San Francisco, Calif., USA). Inuunostaining was performed using rabbit anti-NF200, anti-NF145 and anti-NF70 (all at 1:200), and goat anti-GFRα1, anti-GFRα2 and anti-GFRα3 (all at 1:100); Santa Cruz Biotechnology (Santa Cruz, Calif., USA). All antibodies were used at 200 μg/ml. After overnight incubation at 4° C., the immunoreactivity was detected using horseradish peroxidase-conjugated anti-rabbit or anti-mouse IgG for 1 hour at room temperature and visualized using AEC.
Cells were then washed with phosphate-buffered saline (PBS) and lysed with loading buffer. Proteins were resolved by sodium dodecyl sulfate polyacrylamide gel electrophoresis (SDS-PAGE) on 4-20% gradient acrylamide-bis-acrylamide gel at 125 V for 2 hours and electrotransferred onto nitrocellulose membranes. After blocking with 5% nonfat milk, the membranes were subjected to immunoblot analysis by incubation overnight with rabbit anti-NF200, anti-NF145 and anti-NF70 (all at 1:4000) (Chemicon International, Temecula, Calif., USA) and goat anti-GFRα1, anti-GFRα2 and anti-GFRα3 (all at 1:500) (200 μg/ml; Santa Cruz Biotechnology, Inc., Santa Cruz, Calif., USA), goat anti-rabbit or rabbit anti-goat IgG-horseradish peroxidase being used as the secondary antibody (1:5000) (Zymed Laboratories, San Francisco, Calif., USA). Protein bands were visualized using ECL reagents (Amersham Pharmacia Biotech, Piscataway, N.J., USA). Image-densitometric analyses of the immunoreactive protein bands were performed using OptiQuant-image analysis software (Packard BioScience, Meriden, Conn., USA). Glyceraldehyde-3-phosphate dehydrogenase (GAPPH) served as an internal standard.

NT2 cells [3] = assay: Flow cytometry of NT2 cells (cell cycle); format: cell-based, human; settings: 25 μM, 12 days of treatment
Experimental: Human NT2 precursor (Ntera2/D 1 teratocarcinoma) cells were obtained from Stratagene (La Jolla, Calif., USA) and cultured following the instructions of the supplier. […] After trypsinization, the cells were collected, suspended (1-2×10^6 cells in 0.1 ml citrate/DMSO solution), stained with a solution containing propidium iodide (50 μg/ml) and RNase (10 μg/ml), and subjected to flow cytometric analysis in an FACS Scan flow cytometer (Becton Dickinson, Menlo Park, Calif., USA) equipped with a Modfit software program (Vindelov et al., Cytometry, 3, 332 (1983)).

[4] = test system: PC12 cells (rat pheochromocytoma neurons); assay: MTT cytotoxicity assay, Aβ-induced neurotoxicity in PC12 cells (Example II); format: cell-based; settings: MTT; compounds at 30 and 50 μM; 72 hours
Experimental: (§1) PC12 cells (rat pheochromocytoma neurons) from ATCC (Manassas, Va.) were cultured at 37° C. and 5% CO2 in RPMI 1640 medium devoid of glutamine and supplemented with 10% fetal bovine serum and 5% horse serum. Yao Z, Drieu K and Papadopoulos V., The Gingko biloba extract EGb 761 rescues PC12 neuronal cells from β-amyloid-induced cell death by inhibiting the formation of (3-amyloid-derived diffusible neurotoxic ligands, Brain Res, 889, 181-190 (2001). Cells were seeded in 96-well plates (8×10^4 cells/well). After an overnight period of incubation, increasing concentrations of aggregated Aβ (0.1, 1 and 10 μM) were added to the cells in the presence or absence of the indicated concentrations of the SP compounds to be tested. After 72-hours incubation time various parameters, markers of cell viability, were determined. Mouse MA-10 tumor Leydig cells were maintained at 37° C. in DMEM/Ham's F12 (Biofluids, Rockville, Md.) medium supplemented with 5% heat-inactivated fetal calf serum and 2.5% horse serum in 5% CO2. Cells were plated on 96-well plates at the density of 2.5×10^4 cells/well for overnight. The cells were stimulated with the indicated concentrations of the various SP compounds in 0.2 ml/well serum-free medium for 2 hours. The culture medium was collected and tested for progesterone production by radioimmunoassay.
The cellular toxicity of Aβ was assessed using the 3-(4,5-dimethylthiazol-2-yl)-2,5-diphenyl tetrazolium bromide (MTT) assay (Trevigen, Gaithersburg, Md.). Briefly, 10 μl of the MTT solution were added to the cells cultured in 100 μl medium. After an incubation period of 4 hours, 100 μl of detergent were added and cells were incubated overnight at 37° C. Formazan blue formation was quantified at 600 nm and 690 nm using the Victor quantitative detection spectrophotometer (EGG-Wallac, Gaithersburg, Md.) and the results expressed as (DO600-DO690). […] Liu Y and Schubert D, Steroid hormones block amyloid fibril-induced 3-(4,5-dimethylthiazol-2-yl)-2,5-diphenyltetrazolium bromide (MTT) formazan exocytosis: relationship to neurotoxicity, J. Neurochem., 19, 1639-1662 (1998). For that reason, additional cytotoxicity and cell viability assays were used.
Yao et al., J. Neurochem., 83, 1110-1119 (2002); and Yao et al., The Gingko biloba extract EGb 761 rescues PC12 neuronal cells from β-amyloid-induced cell death by inhibiting the formation of β-amyloid-derived diffusible neurotoxic ligands, Brain Res., 889, 181-190 (2001). To stay close to the concentrations of Aβ present in AD brain, 0.1-10 μM concentrations of Aβ were used. The compounds tested for their neuroprotective properties were examined at 30 and 50 μM concentrations (FIGS. 9-15).

Aβ = target: T1, Aβ (Homo sapiens, UniProt P05067); assay: CPBBA displacement of radiolabeled 22R-hydroxycholesterol from Aβ (Example II); format: binding; settings: 100 μM unlabeled compound; 50 μM Aβ
T1 construct: Aβ1-42 peptide was purchased from American Peptide Co; purchased American Peptide Co. (Sunnyvale, Calif.)
T1 sequence (P05067 672-713): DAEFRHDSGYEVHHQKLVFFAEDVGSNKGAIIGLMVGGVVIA
Experimental: At the end of the incubation time, samples were separated by 1.5% agarose (Type I-B) gel electrophoresis under native conditions and transferred to nitrocellulose membrane (Schleicher&Schuell, Keene, N.H.) in 10×SSC buffer. The membrane was exposed to tritium-sensitive screen and analyzed by phosphoimaging using the Cyclone Storage phosphor system (Packard BioScience). Image-densitometric analysis was performed using the OptiQuant software (Packard BioScience). […] Low molecular weight unincorporated 22R-hydroxycholesterol and derivatives are separated and eliminated during electrophoresis.

PC12 cells = assay: Cellular ATP levels (ATPLite-M) in Aβ-treated PC12 cells; format: cell-based, rat; settings: 0.1 and 1.0 μM Aβ
Experimental: as §1
Cellular ATP concentrations were measured using the ATPLite-M™ luminescence assay (Packard BioSciences Co.). For this assay, cells were cultured on black 96-well ViewPlate™ and the ATP concentrations were measured on a TopCount NXT™ counter (Packard BioSciences Co.) following the recommendations of the manufacturer.

SMILES: CC(C)CC[C@@H](O)[C@@H](C)[C@H]1CC[C@H]2[C@@H]3CC=C4C[C@@H](O)CC[C@]4(C)[C@H]3CC[C@]12C [SP222, 22R-hydroxycholesterol]
- protection against Aβ-induced toxicity ([1]; 1 μM compound): 50%
- protection against Aβ-induced toxicity ([1]; 10 μM compound): 100%
- IC50 ([1]; Homo sapiens, Neuron, NT2T cells, read-out: IC50 of protection from Aβ-induced toxicity): 3 µM
- NF70 protein level (NT2 cells [2]; 1 μM): 83 % of the control level
- NF145 expression (NT2 cells [2]; 5 μM): increase that was apparent at 5 μM
- NF200 protein expression (NT2 cells [2]; 5 μM): 210 % of the control value
- NF145 expression (NT2 cells [2]; 25 μM): 56 % of control levels
- NF200 protein expression (NT2 cells [2]; 25 μM): 180 % of the control value
- NF70 protein level (NT2 cells [2]; 50 μM): 18 % of the control level
- percentage of cells in the G2/M phase (NT2 cells [3]; from 34.43%): 15.90%
- percentage of cells in the G0/G1 phase (NT2 cells [3]; from 35.32%): 50.34%
- neuroprotection against 0.1 μM Aβ-induced neurotoxicity [4]: protects
- neuroprotection against 1 μM Aβ-induced neurotoxicity [4]: protects
- neuroprotection against 10 μM Aβ-induced neurotoxicity [4]: limited neuroprotection
- displacement of radiolabeled 22R-hydroxycholesterol binding to Aβ (Aβ): 80%
- reversal of Aβ-induced decrease in ATP levels (PC12 cells): did not block
